≈ marks a conversion by molar mass, not a printed value.
What was measured:
Type in all cases: functional
Nakaseomyces glabratus = test: Antifungal activity against Candida glabrata ATCC 0001 assessed as reduction in fungal growth
Candida albicans [1] = test: Antifungal activity against Candida albicans 17# assessed as reduction in fungal growth
Pichia kudriavzevii = test: Antifungal activity against Candida krusei ATCC 6258 assessed as reduction in fungal growth
Candida albicans [2] = test: Antifungal activity against Candida albicans 901 assessed as reduction in fungal growth
Aspergillus fumigatus = test: Antifungal activity against Aspergillus fumigatus KM8001 assessed as reduction in fungal growth
Candida albicans [3] = test: Antifungal activity against Candida albicans ATCC 10231 assessed as reduction in fungal growth

SMILES	MIC (Nakaseomyces glabratus) [µg/mL]	MIC (Candida albicans [1]) [µg/mL]	MIC (Pichia kudriavzevii) [µg/mL]	MIC (Candida albicans [2]) [µg/mL]	MIC (Aspergillus fumigatus) [µg/mL]	MIC (Candida albicans [3]) [µg/mL]
CCC(C)C(NC(=O)c1ccc(/C=C/C(=O)N2CCC(C)CC2)cc1)C(=O)Nc1ccncc1 (stereo not given)	2 (≈ 4.32 µM)	4 (≈ 8.65 µM)	1 (≈ 2.16 µM)	8 (≈ 17.3 µM)	> 16	2 (≈ 4.32 µM)
CC1CCN(C(=O)/C=C/c2ccc(C(=O)NC(C)C(=O)Nc3ccncc3)cc2)CC1 (stereo not given)	4 (≈ 9.51 µM)	8 (≈ 19 µM)	4 (≈ 9.51 µM)	4 (≈ 9.51 µM)	4 (≈ 9.51 µM)	2 (≈ 4.76 µM)
OC(Cn1cncn1)(Cn1cncn1)c1ccc(F)cc1F [FLUCONAZOLE]	0.5 (≈ 1.63 µM)	> 16	0.5 (≈ 1.63 µM)	> 16	4 (≈ 13.1 µM)	0.5 (≈ 1.63 µM)
CC1CCN(C(=O)c2ccc(C(=O)NCC(=O)Nc3ccncc3)cc2)CC1	2 (≈ 5.26 µM)	4 (≈ 10.5 µM)	0.5 (≈ 1.31 µM)	4 (≈ 10.5 µM)	4 (≈ 10.5 µM)	1 (≈ 2.63 µM)
CC1CCN(C(=O)/C=C/c2ccc(C(=O)NCC(=O)Nc3ccncc3)cc2)CC1	1 (≈ 2.46 µM)	8 (≈ 19.7 µM)	2 (≈ 4.92 µM)	4 (≈ 9.84 µM)	8 (≈ 19.7 µM)	1 (≈ 2.46 µM)

From ChEMBL document CHEMBL5352395, “The discovery of novel antifungal phenylpyridines derivatives based on CYP53 binding model” (Eur J Med Chem, 2022)
